How the values were obtained:
5-HT2A receptors = 5-HT2A receptors (Homo sapiens, UniProt P28223); conditions: cited from earlier work
5-HT2C receptors = target: T1, 5-HT2C receptors (Homo sapiens, UniProt P28335); conditions: cited from earlier work
T1 sequence (P28335 33-458): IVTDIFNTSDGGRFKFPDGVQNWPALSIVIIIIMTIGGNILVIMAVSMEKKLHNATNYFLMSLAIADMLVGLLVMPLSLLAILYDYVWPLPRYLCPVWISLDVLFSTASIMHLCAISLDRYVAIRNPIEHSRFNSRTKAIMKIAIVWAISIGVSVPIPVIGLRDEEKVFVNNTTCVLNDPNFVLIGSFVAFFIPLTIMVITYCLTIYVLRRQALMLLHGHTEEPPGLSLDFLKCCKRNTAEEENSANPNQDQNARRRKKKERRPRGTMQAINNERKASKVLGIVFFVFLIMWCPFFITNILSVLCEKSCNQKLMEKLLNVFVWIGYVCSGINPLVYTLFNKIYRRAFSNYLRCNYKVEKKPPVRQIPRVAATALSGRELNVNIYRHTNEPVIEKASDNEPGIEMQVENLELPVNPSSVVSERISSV

5-HT3 receptors = conditions: cited from earlier work
adrenergic α2 receptors = conditions: cited from earlier work
histamine H1 receptors = histamine H1 receptors (Homo sapiens, UniProt P35367); conditions: cited from earlier work
histamine H1 receptors, sequence (P35367 whole entry): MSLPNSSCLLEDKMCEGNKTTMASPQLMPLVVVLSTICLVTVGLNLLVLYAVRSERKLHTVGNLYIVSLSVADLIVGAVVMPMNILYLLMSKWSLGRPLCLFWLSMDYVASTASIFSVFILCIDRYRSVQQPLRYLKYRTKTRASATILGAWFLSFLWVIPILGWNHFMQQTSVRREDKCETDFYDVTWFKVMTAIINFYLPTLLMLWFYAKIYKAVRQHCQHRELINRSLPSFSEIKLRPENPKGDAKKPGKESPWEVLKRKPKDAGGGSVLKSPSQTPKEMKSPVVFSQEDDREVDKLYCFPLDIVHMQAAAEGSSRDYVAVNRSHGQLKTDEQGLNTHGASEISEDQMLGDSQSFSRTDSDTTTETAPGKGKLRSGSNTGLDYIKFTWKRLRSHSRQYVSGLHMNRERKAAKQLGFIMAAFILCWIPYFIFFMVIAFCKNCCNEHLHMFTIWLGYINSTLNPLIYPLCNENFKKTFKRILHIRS

5-HT1A receptors = target: T2, 5-HT1A receptors (Homo sapiens, UniProt P08908); conditions: cited from earlier work
T2 sequence (P08908 1-422): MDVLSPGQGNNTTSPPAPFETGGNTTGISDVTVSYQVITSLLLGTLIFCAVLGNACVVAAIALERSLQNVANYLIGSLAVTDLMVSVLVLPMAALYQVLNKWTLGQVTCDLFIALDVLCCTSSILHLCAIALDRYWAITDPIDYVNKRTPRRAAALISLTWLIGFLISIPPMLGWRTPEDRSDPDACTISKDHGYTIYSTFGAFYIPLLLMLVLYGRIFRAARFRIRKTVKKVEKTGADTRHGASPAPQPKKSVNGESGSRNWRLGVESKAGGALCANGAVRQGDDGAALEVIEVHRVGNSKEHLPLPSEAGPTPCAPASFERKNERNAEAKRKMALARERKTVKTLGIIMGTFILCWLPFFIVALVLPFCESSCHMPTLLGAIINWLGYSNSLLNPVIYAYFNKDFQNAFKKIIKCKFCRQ

[1] = PK analysis of [MPh-IR+Ond-PR2] in the Phase 2A study (24-hour blood PK samples, Day 1 and Day 14)
From the text: Ond-PR2 is a bead formulation prepared from ondansetron as the active pharmaceutical ingredient (API). MPh-IR is an immediate-release generic formulation of methylphenidate. [MPh-IR+Ond-PR2] is a single encapsulated dosage form consisting of MPh-IR and Ond-PR2 as Components 1 and 2, respectively. Following in vitro dissolution testing and PK and safety determinations in normal healthy volunteers (Phase 1 trial), we conducted a proof-of-concept, randomized, double-blind, placebo-controlled Phase 2A safety/efficacy clinical trial. A total of 48 patients residing in a residential program and meeting the DSM-4 criteria for primary psychostimulant abuse were screened, and 30 qualifying subjects were randomized into either [MPh-IR+Ond-PR2] or placebo treatment group.
Single capsules containing either [MPh-IR+Ond-PR2] or dextrose (placebo) were administered once a day for 14 days. Subjects also underwent single fMRI-based assessments 1-7 days before the first study dosing (pre-treatment) and again between Day 3 and 7 days after the last dosing (i.e., post-treatment assessment was performed after complete drug washout). Outcome measures for group comparisons were behavioral rating scales and blood-oxygenation-level-dependent (BOLD) functional imaging results under well-established resting-state, cue-reactivity and Go/noGO task paradigms.
On Day 1 and Day 14, 24-four-hour blood PK samples were collected following single oral administrations of a [MPh-IR+Ond-PR2] capsule to: (1) estimate the PK parameters of the two Components (i.e., MPh-IR and Ond-PR2] by quantifying serum methylphenidate and ondansetron concentrations; and (2) determine whether or not any of these parameters change after single daily administrations for 14 days. Descriptive statistics for blood methylphenidate (MPh-IR) and ondansetron (Ond-PR2) concentrations at each time point were summarized as the mean, standard deviation and coefficient of variation. Estimation and statistical analyses of PK parameters were performed with SAS 9.3, and BABE Solution.

rat animal models of LID = assay: Levodopa-induced abnormal involuntary movement (LIAIM) in 6-OHDA-lesioned rat models of LID; type: in vivo; conditions: 2 weeks s.c. treatment; challenge with 25 mg/kg levodopa two days after last treatment; compared to L_SS
Method: First, the dopaminergic neurotoxin 6-hydroxydopamine (6-OHDA) was injected into the right medial forebrain bundle of rats to induce unilateral lesions of the nigrostriatal DA pathway. Starting 3 weeks after 6-OHDA lesion, animals were treated twice daily with levodopa methyl ester (25 mg/kg, i.p., bid immediately preceded by 6.5 mg/kg, i.p. benserazide) for 3 weeks to establish LIAIM. Three hour LIAIM scores were quantified twice a week during the levodopa treatment using standard LIAIM rating scales.
Following LIAIM establishment, animals with combined limb, axial and orolingual LIAIM severity scores>25 were treated with one of the 3 treatment regimens for 2 weeks: (1) pergolide (0.1 mg/kg) followed 3.5 hours later by the 5-HT2A/2C antagonist ketanserin (1 mg/kg) [L_PK group]; (2) pergolide+saline 3.5 hours later [L_PS Group]; and (3) DMSO (1% in saline)+saline 3.5 hours later [L_SS]. All injections were given subcutaneously.
Two days after the last L_PK, L_PS or L-SS treatment, all animals were challenged with 25 mg/kg levodopa and their LIAIM scores were again quantified.

[2] = cited from earlier work
CYP2D6 = CYP2D6 (Homo sapiens, UniProt P10635); conditions: cited from earlier work
CYP2D6, sequence (P10635 whole entry): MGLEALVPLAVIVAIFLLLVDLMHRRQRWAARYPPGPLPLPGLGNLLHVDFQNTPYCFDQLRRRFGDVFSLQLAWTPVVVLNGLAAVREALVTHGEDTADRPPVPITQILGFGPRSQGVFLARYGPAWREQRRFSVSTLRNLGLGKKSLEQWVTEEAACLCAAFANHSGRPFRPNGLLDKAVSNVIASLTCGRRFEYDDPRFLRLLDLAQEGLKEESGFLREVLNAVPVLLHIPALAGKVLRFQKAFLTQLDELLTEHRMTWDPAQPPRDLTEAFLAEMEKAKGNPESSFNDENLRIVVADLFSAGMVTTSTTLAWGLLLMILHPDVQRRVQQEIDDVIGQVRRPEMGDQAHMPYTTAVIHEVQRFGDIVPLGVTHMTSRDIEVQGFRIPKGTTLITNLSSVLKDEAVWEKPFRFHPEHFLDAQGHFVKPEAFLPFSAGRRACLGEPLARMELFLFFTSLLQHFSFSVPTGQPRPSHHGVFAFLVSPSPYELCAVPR

[3] = vs R(−) enantiomer of mirtazapine

5-HT2A receptors, sequence (P28223 whole entry): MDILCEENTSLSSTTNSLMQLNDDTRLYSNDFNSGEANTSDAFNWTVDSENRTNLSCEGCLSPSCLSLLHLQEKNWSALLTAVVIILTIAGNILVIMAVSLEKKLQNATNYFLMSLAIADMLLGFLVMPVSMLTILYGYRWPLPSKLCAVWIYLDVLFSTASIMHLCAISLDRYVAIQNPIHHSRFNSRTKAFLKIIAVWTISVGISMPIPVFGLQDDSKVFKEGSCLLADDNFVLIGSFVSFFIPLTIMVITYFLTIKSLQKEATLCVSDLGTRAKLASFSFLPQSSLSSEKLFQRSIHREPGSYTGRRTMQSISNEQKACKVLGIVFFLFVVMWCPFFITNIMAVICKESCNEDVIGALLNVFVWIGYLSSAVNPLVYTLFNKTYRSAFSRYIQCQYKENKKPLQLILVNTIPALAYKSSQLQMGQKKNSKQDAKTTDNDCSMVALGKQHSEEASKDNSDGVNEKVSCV

## CN1CCN2c3ncccc3Cc3ccccc3C2C1 (racemic) [Mirtazapine, 1,2,3,4,10,14b-hexahydro-2-methylpyrazino[2,1-a]pyrido[2,3-c]benzazepine]
5-HT2A receptors
  Affinity to 5-HT2A receptors: high affinities
5-HT2C receptors
  Affinity to 5-HT2C receptors: high affinities
5-HT3 receptors
  Affinity for 5-HT3 receptors: high affinities
Adrenergic α2 receptors
  Affinity for adrenergic α2 receptors: high affinities
Histamine H1 receptors
  Affinity for histamine H1 receptors: high affinities
5-HT1A receptors
  Affinity to 5-HT1A receptors: minimal affinity

## COC(=O)C(c1ccccc1)C1CCCCN1 (stereo not drawn) [Methylphenidate, methylphenidate]
[1]; Day 1, mean
  Cmin (minimum blood concentration before the next administration): 0 ng
  Kel (elimination rate constant): 0.2 h − 1
[1]; Day 14, mean
  AUC (0-24): 21.5 ng·h
  Cmin (minimum blood concentration before the next administration): 0 ng
  Half life(t1/2): 3.1 h
  Kel (elimination rate constant): 0.2 h − 1
[1]; human, in vivo
  AUC(0-t): 21.5 ng·h/mL
  Cmax: 3.4 ng/mL
  half-life: 3.2 h
[1]; human, in vivo, AUC (0-inf), Day 1, mean
  AUC(0-inf): 21.6 ng·h/mL
[1]; human, in vivo, AUC (0-inf), Day 14, mean
  AUC(0-inf): 23.4 ng·h/mL
[1]; human, in vivo, Tmax, Day 1, mean
  Tmax: 1.9 h
[1]; human, in vivo, Tmax, Day 14, mean
  Tmax: 1.7 h
[1]; human, in vivo, po
  Cmax: 4 ng/mL
[1]; once-daily [MPh-IR+Ond-PR2] for 14 days
  Change in Cmax, Cmin, Tmax, t½, AUC (0-24), AUC (0-inf.) and Kel between Day 1 and Day 14: No significant changes

## CCCN1C[C@H](CSC)C[C@@H]2c3cccc4[nH]cc(c34)C[C@H]21 [L_P/S, pergolide]
Rat animal models of LID
  Total LIAIM scores (ratios between post- and pre-reversal treatment scores): No differences

## Cc1nccn1CC1CCc2c(c3ccccc3n2C)C1=O (stereo not drawn) [Ondansetron, ondansetron]
[1]; human, in vivo
  AUC (0-24): 186.4 ng·h
  AUC(0-inf): 226.4 ng·h
  Change in Cmax, Cmin, Tmax, t½, AUC (0-24), AUC (0-inf.) and Kel between Day 1 and Day 14: No significant changes
  Cmax: 12.6 ng/mL
  Half life(t1/2): 7.2 h
  Kel (elimination rate constant): 0.1 h − 1
  Tmax: 5.8 h
[1]; human, in vivo, AUC (0-24)
  AUC(0-t): 136 ng·h/mL
[1]; human, in vivo, AUC (0-inf)
  AUC(0-inf): 179 ng·h/mL
[1]; human, in vivo, Half life(t1/2)
  half-life: 6.9 h
[1]; human, in vivo, Tmax
  Tmax: 6.3 h
[1]; human, in vivo, po
  Cmax: 11.2 ng/mL

## CN1CCN2c3ncccc3Cc3ccccc3[C@H]2C1 [esmirtazapine]
5-HT2C receptors; [3]
  Affinity for 5-HT2C receptors in comparison with the R(−) enantiomer: higher affinity
Adrenergic α2 receptors; [3]
  Affinity for α2 adrenergic receptors in comparison with the R(−) enantiomer: higher affinity
[2]; CYP2D6 phenotype
  Clearance in poor metabolizers compared to extensive metabolizers: twice as low
[2]; enantioselective transport process in the gut wall
  Absorption in comparison with the R(−) enantiomer: may be absorbed faster (but not more extensively)
CYP2D6
  Metabolising enzyme: predominantly metabolized by CYP2D6

Reference: patent publication US12311056B2, “Composition and method for treatment of neuropsychiatric disorders” (Duke University, priority 2015, dated 2025)
